After the bases stand the sugars from the 5' end (letter, count) and the backbone: PS all phosphorothioate, else s phosphorothioate and o phosphodiester by linkage. Methylation of C is not given here. l = locked nucleic acid (LNA); d = 2'-deoxy (DNA)
Biological target: SNHG14
Conditions: ASO, Human Neuronal Cell

Row | Sequence | target mRNA inhibition (7.5 µM) [%] | target mRNA inhibition (0.2 µM) [%] | target mRNA inhibition (1 µM) [%] | target mRNA inhibition (5 µM) [%]
1 | ATATTGATTCAATTCCC (sugars ldlddddddddlddlll, PS) | 67 |  |  | 
2 | ATATTGATTCAATTCCC (sugars ldldldddddddldlll, PS) | 70 |  |  | 
3 | ATCAATATCTTCTCAC (sugars l3 d10 l3, PS) |  | 54 | 62 | 
4 | ATCATTCTCAACAATTA (sugars l4 d11 l2, PS) |  | 59 | 70 | 
5 | ATCATTCTCAACAATTAAA (sugars l1 d1 l4 d6 l7, PS) | 13 |  |  | 
6 | ATCATTCTCAACAATTAAA (sugars l4 d8 l7, PS) | 27 |  |  | 
7 | ATCATTCTCAACAATTAAA (sugars llllldddddddlldldll, PS) | 41 |  |  | 
8 | ATCTCAACTACCATTT (sugars l4 d10 l2, PS) |  | 67 | 67 | 
9 | ATCTCATGACCACCTA (sugars l3 d10 l3, PS) |  | 60 | 70 | 
10 | ATCTCATGACCACCTAA (sugars l1 d3 l1 d8 l4, PS) | 58 |  |  | 
11 | ATCTCATGACCACCTAA (sugars l3 d11 l3, PS) |  | 54 | 56 | 
12 | ATCTCATGACCACCTAA (sugars lddlldddddddldlll, PS) | 68 |  |  | 
13 | ATCTCATGACCACCTAA (sugars ldlddddddddddldll, PS) | 61 |  |  | 
14 | ATCTTCAAGAATTCTC (sugars l3 d10 l3, PS) |  | 44 | 48 | 
15 | ATCTTTCCATTTATTTCCA (sugars l1 d1 l1 d14 l2, PS) | 41 |  |  | 
16 | ATCTTTCCATTTATTTCCA (sugars lddddldddddddddldll, PS) | 31 |  |  | 
17 | ATCTTTGACATTCCATC (sugars l2 d11 l4, PS) |  | 54 | 61 | 
18 | ATGAAACTATTACTCC (sugars l2 d10 l4, PS) |  | 18 | 35 | 
19 | ATTCAAAGCACACCACC (sugars l2 d12 l3, PS) |  | 25 | 32 | 
20 | ATTCAGTTACCAACTA (sugars l3 d10 l3, PS) |  | 39 | 38 | 
21 | ATTCTCAATTGCACTT (sugars l4 d10 l2, PS) |  | 49 | 58 | 
22 | ATTGATTCAATTCCCTT (sugars l2 d11 l4, PS) |  | 62 | 69 | 
23 | ATTGATTCAATTCCCTT (sugars ldddldddddddldlll, PS) | 62 |  |  | 
24 | ATTGATTCAATTCCCTT (sugars ldlddddddddllldll, PS) | 47 |  |  | 

Row | Sequence | target mRNA inhibition (7.5 µM) [%] | target mRNA inhibition (0.2 µM) [%] | target mRNA inhibition (1 µM) [%] | target mRNA inhibition (5 µM) [%]
25 | ATTGATTCAATTCCCTT (sugars ldllddddddddlddll, PS) | 74 |  |  | 
26 | ATTTACACTTAATTATACTT (sugars ldddldldddddddllllll, PS) | 46 |  |  | 
27 | ATTTACACTTAATTATACTT (sugars llddlldddddddlllddll, PS) | 36 |  |  | 
28 | ATTTACACTTAATTATACTT (sugars llldlddddddddlldllll, PS) | 27 |  |  | 
29 | ATTTACACTTAATTATACTT (sugars llllddlddddddldddlll, PS) | 21 |  |  | 
30 | ATTTATTTCCATTTATTTTC (sugars ldddlldddddddldddlll, PS) | 64 |  |  | 
31 | ATTTATTTCCATTTATTTTC (sugars ldlddlddddddddllldll, PS) | 58 |  |  | 
32 | ATTTATTTCCATTTATTTTC (sugars ldllddddddddddlddlll, PS) | 60 |  |  | 
33 | ATTTTTTTCTTACTATCTTC (sugars lldlddddddddddlddlll, PS) | 57 |  |  | 
34 | CAAAGATCATTCTCAAC (sugars l2 d1 l1 d7 l6, PS) | 26 |  |  | 
35 | CAAAGATCATTCTCAAC (sugars l2 d2 l1 d6 l6, PS) | 18 |  |  | 
36 | CAAAGATCATTCTCAAC (sugars l3 d8 l6, PS) | 53 |  |  | 
37 | CAAAGATCATTCTCAACA (sugars l2 d1 l1 d9 l5, PS) | 69 |  |  | 
38 | CAACATTATTAACCACCTT (sugars l3 d11 l2 d1 l2, PS) | 51 |  |  | 
39 | CAACATTATTAACCACCTT (sugars ldldddddddddddldlll, PS) | 52 |  |  | 
40 | CAACATTATTAACCACCTT (sugars ldlldddddddddddldll, PS) | 58 |  |  | 
41 | CAACATTATTAACCACCTT (sugars lldllddddddddddldll, PS) | 53 |  |  | 
42 | CAAGTTTCCTATATTC (sugars l4 d10 l2, PS) |  | 62 | 64 | 
43 | CACACCTATTATATAAT (sugars l4 d11 l2, PS) |  | 2 | 18 | 
44 | CACATCTTGTATACAA (sugars l3 d10 l3, PS) |  | 52 | 61 | 
45 | CACCAGTATTTCTTCTT (sugars l4 d11 l2, PS) |  | 31 | 27 | 
46 | CACCTGATAACAGACCCT (sugars l3 d12 l3, PS) |  | 24 | 16 | -10
47 | CACTAGTACTCTTATT (sugars l4 d10 l2, PS) |  | 43 | 38 | 
